The target in data set [1] is T1, S1P3 (Homo sapiens, UniProt Q99500). Briefly: 35S-GTPγS binding assay, S1P3 membranes. The class given is biochemical. Conditions: membranes from CHO cells expressing S1P3; read-out: S1P3/GTPG EC50. As for the experimental part: (§1) Membranes Preparation: Membranes were prepared from CHO cells expressing S1P1 or S1P3 for use in ligand and 35S-GTPγS binding studies. Cells were suspended in 50 mM TRIS, pH 7.4, 2 mM EDTA, 250 mM Sucrose (buffer A) and 1× Complete protease inhibitor cocktail (Roche), and disrupted at 4° C. by N2 decompression using a cell disruption bomb (Parr Instrument). Following centrifugation at 1000 RPM for 10 min at 4° C., the supernatant was diluted (2×) in buffer A and centrifuged again at 19000 RPM for 75 min at 4° C. The pellet was then suspended in 10 mM HEPES, pH 7.4, 1 mM EDTA, 250 mM Sucrose (Buffer B), and 1× Complete EDTA-free protease inhibitor cocktail and homogenized using a potter. Membranes were flash frozen in liquid N2 and stored at −80° C.
(§2) Measurements of 35S-GTPγS Binding: Membranes (1 to 10 μg protein) prepared as described above, were incubated in 96-well Scintiplates (PerkinElmer) with test compounds diluted in DMSO, in 140 μl of 20 mM HEPES, pH 7.4, 10 mM MgCl2, 2 μg/well Saponin, 0.2% fatty acid free BSA (Assay buffer), 125 mM NaCl and 1.5 μM GDP. The assay was initiated with the addition of 60 μl of 1.5 nM [35S]-GTPγS (1100 Ci/mmol; GE Healthcare) in assay buffer. After 60 min incubation at 30° C. on a shaker, plates were centrifuged for 10 min at 2000 RPM. Supernatant was discarded and membrane bound radioactivity was measured on a PerkinElmer 1450 MicroBeta counter. Triplicate samples were averaged and expressed as % response relative to S1P activation in absence of compound (n=2).
For orientation: Binding of GTPγS marks nucleotide exchange on a G protein.

Data set [2] deals with T2, S1P1 (Homo sapiens, UniProt P21453). Briefly: Receptor binding assay, [33P]sphingosine 1-phosphate competition, S1P1. The method, boiled down: (§3)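 SPA competition binding on CHO-cell membranes with 30 pM (S1P1) or 15 pM (S1P3) [33P]S1P in 50 mM HEPES pH 7.5, 5 mM MgCl2, 100 mM NaCl, 0.4% fatty acid-free BSA, 60 min at RT. Percent inhibition normalised to total binding and to non-specific binding (1000-fold unlabelled S1P), triplicates averaged.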

Data set [3] concerns the target T2, S1P1. Kind of data set: 35S-GTPγS binding assay, S1P1 membranes. The class given is biochemical. Conditions: membranes from CHO cells expressing S1P1; read-out: S1P1/GTPG EC50. On the procedure:
as §1, §2
The “potency” or the “activity” of the compounds is determined by the EC50 values as evaluated in the above described 35S-GTPγS binding assay.

Data set [4] concerns the target T3, human S1P1 Receptor fused to the green fluorescent protein (EGFP) (Homo sapiens, UniProt P21453).
T3 construct: host or cells: U2OS (human bone osteosarcoma epithelial cells), CMV promoter, geneticin selection
Briefly: Internalization of S1P1 in S1P1-U2OS cells by cell imaging analysis. As to conditions: 1 hour incubation, 384-well. The class given is cell-based. The method, boiled down:
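Human U2OS osteosarcoma cells stably expressed human S1P1-EGFP. After 2 h serum starvation in 0.1% fatty-acid-free BSA medium, cells were treated with compounds for 1 h at 37 °C. Cells were then fixed and Hoechst-stained, and internalization was imaged as spots (receptor) per nucleus.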

For data set [5], the target named is T1, S1P3. Kind of data set: Receptor binding assay, [33P]sphingosine 1-phosphate competition, S1P3. Put shortly: as §3
Where [6] appears, read: 96 well-plate, read-out: S1P1 binding IC50 (M) (96 well-plate).
Where [7] appears, read: 384 well-plate, read-out: S1P1 binding IC50 (M) (384 well-plate).
[8] abbreviates: 96 well-plate, read-out: S1P3 binding IC50 (M) (96 well-plate).
Where [9] appears, read: 384 well-plate, read-out: S1P3 binding IC50 (M) (384 well-plate).

Counter-ions that a name gives are not always drawn. Like-named read-outs stand apart in the source and are kept apart here.

T3 sequence (P21453 with tags, fused parts or gaps): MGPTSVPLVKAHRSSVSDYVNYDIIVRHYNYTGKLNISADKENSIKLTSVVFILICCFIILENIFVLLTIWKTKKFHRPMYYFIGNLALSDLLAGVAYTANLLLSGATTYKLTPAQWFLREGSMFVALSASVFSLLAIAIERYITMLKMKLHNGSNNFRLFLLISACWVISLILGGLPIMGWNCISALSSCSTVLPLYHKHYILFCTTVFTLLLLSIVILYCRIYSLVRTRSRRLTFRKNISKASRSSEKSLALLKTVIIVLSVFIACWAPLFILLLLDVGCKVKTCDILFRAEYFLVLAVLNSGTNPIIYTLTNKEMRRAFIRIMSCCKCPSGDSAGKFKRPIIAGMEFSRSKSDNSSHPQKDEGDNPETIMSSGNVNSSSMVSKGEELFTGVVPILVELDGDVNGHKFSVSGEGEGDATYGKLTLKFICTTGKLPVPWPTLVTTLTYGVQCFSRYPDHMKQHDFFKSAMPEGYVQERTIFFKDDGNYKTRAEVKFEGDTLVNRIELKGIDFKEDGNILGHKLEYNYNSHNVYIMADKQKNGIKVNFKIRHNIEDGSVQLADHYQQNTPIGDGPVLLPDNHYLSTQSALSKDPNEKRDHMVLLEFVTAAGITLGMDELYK
T1 sequence (Q99500 whole entry, species assumed): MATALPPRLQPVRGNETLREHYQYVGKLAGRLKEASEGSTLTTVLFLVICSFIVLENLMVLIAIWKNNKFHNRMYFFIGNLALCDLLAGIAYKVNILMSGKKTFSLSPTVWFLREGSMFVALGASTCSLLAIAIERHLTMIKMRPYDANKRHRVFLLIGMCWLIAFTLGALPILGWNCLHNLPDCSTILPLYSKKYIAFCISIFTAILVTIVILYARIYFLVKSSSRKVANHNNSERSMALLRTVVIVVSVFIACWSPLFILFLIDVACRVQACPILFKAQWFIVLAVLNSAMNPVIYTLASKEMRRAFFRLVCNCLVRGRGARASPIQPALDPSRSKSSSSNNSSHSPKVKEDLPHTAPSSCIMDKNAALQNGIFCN
T2 sequence (P21453 whole entry, species assumed): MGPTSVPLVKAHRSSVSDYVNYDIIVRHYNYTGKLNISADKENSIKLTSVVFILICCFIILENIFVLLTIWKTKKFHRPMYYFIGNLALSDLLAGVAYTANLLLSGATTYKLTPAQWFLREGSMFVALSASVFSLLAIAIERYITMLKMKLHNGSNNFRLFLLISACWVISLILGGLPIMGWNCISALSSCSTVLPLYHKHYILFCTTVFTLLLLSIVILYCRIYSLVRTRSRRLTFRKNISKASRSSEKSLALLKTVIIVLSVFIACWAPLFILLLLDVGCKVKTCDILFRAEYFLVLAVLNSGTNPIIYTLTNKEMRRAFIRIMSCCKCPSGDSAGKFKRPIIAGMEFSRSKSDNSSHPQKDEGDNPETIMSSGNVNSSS

A word on the IC50: it is the point on the concentration scale where inhibition reaches its midpoint. For the compound `COCc1cc(-c2nc(-c3ccc(O)nc3)no2)ccc1-c1ccccc1C` [Example 21, 5-{5-[2-(methoxymethyl)-2′-methylbiphenyl-4-yl]-1,2,4-oxadiazol-3-yl}pyridin-2-ol], the EC50 on S1P3 [1] came out at 422 nM; on S1P1 [3], 3.97 nM. On S1P1 [2] (setting [6]), the IC50 came out at 4.76e-08 M.

For the compound `COCc1cc(-c2nc(-c3ccc(NCCC(=O)O)nc3)no2)ccc1-c1ccccc1C` [Example 2, N-(5-{5-[2-(methoxymethyl)-2′-methylbiphenyl-4-yl]-1,2,4-oxadiazol-3-yl}pyridin-2-yl)-beta-alanine, hydrochloride salt], the EC50 at S1P3 [1] was 1890 nM; on S1P1 [3], 21.1 nM. For the same compound, the IC50 on S1P1 [2] (setting [6]) was 4.83e-09 M.

A word on the melting point: it is the temperature of the solid-liquid transition. `COCc1cc(-c2nc(-c3cnc(N)c(C)c3)no2)ccc1-c1ccccc1Cl` [Example 76, 5-{5-[2′-chloro-2-(methoxymethyl)biphenyl-4-yl]-1,2,4-oxadiazol-3-yl}-3-methylpyridin-2-amine] showed a melting point of 143 to 145 °C. The same compound had an EC50 in data set [4] of 37.4 nM. In addition, at S1P1 [2] (setting [7]), the IC50 was found to be 2.16e-08 M.

In the case of `CCC1CCCCN1c1ccc(-c2nc(-c3ccc(N)nc3)no2)cc1COC` (stereo not shown) [Example 27, 5-{5-[4-(2-ethylpiperidin-1-yl)-3-(methoxymethyl)phenyl]-1,2,4-oxadiazol-3-yl}pyridin-2-amine], the EC50 worked out at 1660 nM on S1P3 [1] and 13.4 nM on S1P1 [3]. Moreover, at S1P1 [2] (setting [6]), the concentration for half-maximal inhibition (IC50) turned out to be 5.7e-09 M.

With `COCc1cc(-c2nc(-c3ccnc(N)c3)no2)ccc1-c1ccccc1C` [Example 15, 4-{5-[2-(methoxymethyl)-2′-methylbiphenyl-4-yl]-1,2,4-oxadiazol-3-yl}pyridin-2-amine, hydrochloride salt], the values for the EC50 (in data set [4]; on S1P3 [1]; on S1P1 [3]) were 6 nM, 414 nM and 3.52 nM, respectively. Besides, the concentration for half-maximal inhibition (IC50) on S1P1 [2] (setting [6]) worked out at 1.04e-08 M.

As to `COCc1cc(-c2nc(-c3ccc(N)nc3)no2)ccc1-c1ccccc1C` [Example 4, 5-{5-[2-(methoxymethyl)-2′-methylbiphenyl-4-yl]-1,2,4-oxadiazol-3-yl}pyridin-2-amine, hydrochloride salt], the half-maximal inhibitory concentration (IC50) stood at 6.07e-06 M at S1P3 [5] (setting [8]), 7.85e-06 M at S1P3 [5] (setting [9]), 1.75e-09 M on S1P1 [2] (setting [6]) and 3.2e-08 M on S1P1 [2] (setting [7]). Also, the EC50 stood at 32 nM in data set [4], 2690 nM at S1P3 [1] and 4.11 nM at S1P1 [3].

For the compound `COCc1cc(-c2nc(-c3cnc(N)c(C)c3)no2)ccc1-c1ccccc1F` [Example 79, 5-{5-[2′-fluoro-2-(methoxymethyl)biphenyl-4-yl]-1,2,4-oxadiazol-3-yl}-3-methylpyridin-2-amine], the melting point lay in the range of 162 to 164 °C. In addition, in data set [4], the EC50 worked out at 58.7 nM. For the same compound, the IC50 on S1P1 [2] (setting [7]) stood at 2.15e-08 M.

With `COCc1cc(-c2nc(-c3ccc(N)nc3)no2)ccc1N1CCCCC1C` (stereo not shown) [Example 9, 5-{5-[3-(methoxymethyl)-4-(2-methylpiperidin-1-yl)phenyl]-1,2,4-oxadiazol-3-yl}pyridin-2-amine], the EC50 is 2620 nM at S1P3 [1] and 1.77 nM on S1P1 [3]. The IC50 at S1P1 [2] (setting [6]) turned out to be 4.29e-09 M.

Turning to `COCc1cc(-c2nc(-c3cnc(NCCC(=O)O)c(Cl)c3)no2)ccc1-c1ccccc1C` [Example 37, N-(3-chloro-5-{5-[2-(methoxymethyl)-2′-methylbiphenyl-4-yl]-1,2,4-oxadiazol-3-yl}pyridin-2-yl)-beta-alanine, hydrochloride salt], the IC50 at S1P3 [5] (setting [8]) was found to be 2.86e-06 M; at S1P3 [5] (setting [9]), 1.5e-05 M; at S1P1 [2] (setting [6]), 1.07e-09 M; on S1P1 [2] (setting [7]), 1.06e-08 M. In addition, the EC50 in data set [4] turned out to be 19.8 nM; on S1P3 [1], 2110 nM; at S1P1 [3], 2.37 nM.

With `COCc1cc(-c2nc(-c3ccc(O)nc3)no2)ccc1N1CCCCC1C` (stereo not shown) [Example 22, 5-{5-[3-(methoxymethyl)-4-(2-methylpiperidin-1-yl)phenyl]-1,2,4-oxadiazol-3-yl}pyridin-2-ol], the EC50 turned out to be 153 nM on S1P3 [1] and 5.29 nM at S1P1 [3]. Besides, on S1P1 [2] (setting [6]), the IC50 was found to be 1.3e-09 M.

With `COCc1cc(-c2nc(-c3cnc(N)c(C)c3)no2)ccc1-c1ccccc1C` [Example 18, 5-{5-[2-(methoxymethyl)-2′-methylbiphenyl-4-yl]-1,2,4-oxadiazol-3-yl}-3-methylpyridin-2-amine, hydrochloride salt], the IC50 came out at 2.21e-05 M on S1P3 [5] (setting [8]), 4.33e-09 M at S1P1 [2] (setting [6]) and 1.52e-08 M at S1P1 [2] (setting [7]). The EC50 was determined as 49.4 nM in data set [4] and 4.87 nM at S1P1 [3].

For `COCc1cc(-c2nc(-c3cnc(N)c(Cl)c3)no2)ccc1-c1ccccc1C` [Example 14, 3-chloro-5-{5-[2-(methoxymethyl)-2′-methylbiphenyl-4-yl]-1,2,4-oxadiazol-3-yl}pyridin-2-amine], the half-maximal inhibitory concentration (IC50) on S1P3 [5] (setting [8]) was determined as 1.65e-05 M; at S1P1 [2] (setting [6]), 1.89e-08 M. For the same compound, the EC50 in data set [4] worked out at 44.9 nM; at S1P3 [1], 1460 nM; at S1P1 [3], 5.87 nM.

With `COCc1cc(-c2nc(-c3ccc(N)nc3)no2)ccc1-c1ccccc1Cl` [Example 32, 5-{5-[2′-chloro-2-(methoxymethyl)biphenyl-4-yl]-1,2,4-oxadiazol-3-yl}pyridin-2-amine], the IC50 on S1P3 [5] (setting [8]) is 9.4e-06 M; on S1P1 [2] (setting [6]), 1.39e-09 M; at S1P1 [2] (setting [7]), 2.12e-08 M. Moreover, the EC50 in data set [4] is 38.8 nM; at S1P1 [3] it was 2.98 nM.

As to `COCc1cc(-c2nc(-c3ccnc(NCCC(=O)O)c3)no2)ccc1-c1ccccc1C` [Example 7, N-(4-{5-[2-(methoxymethyl)-2′-methylbiphenyl-4-yl]-1,2,4-oxadiazol-3-yl}pyridin-2-yl)-beta-alanine, hydrochloride salt], the EC50 on S1P3 [1] came out at 118 nM; at S1P1 [3], 5.12 nM. Also, on S1P1 [2] (setting [6]), the IC50 turned out to be 9.09e-09 M.

Turning to `COCc1cc(-c2nc(-c3cnc(N)c(Cl)c3)no2)ccc1-c1ccccc1Cl` [Example 47, 3-chloro-5-{5-[2′-chloro-2-(methoxymethyl)biphenyl-4-yl]-1,2,4-oxadiazol-3-yl}pyridin-2-amine], the melting point was in the range of 182 to 184 °C. The IC50 on S1P3 [5] (setting [8]) was 2e-05 M. This compound also yielded an EC50 in data set [4] of 26.8 nM. Moreover, at S1P1 [2] (setting [6]), the concentration for half-maximal inhibition (IC50) was 6.02e-09 M.

With `CCOc1cc(-c2nc(-c3cnc(N)c(C)c3)no2)ccc1-c1ccccc1C(F)(F)F` [Example 77, 5-{5-[2-ethoxy-2′-(trifluoromethyl)biphenyl-4-yl]-1,2,4-oxadiazol-3-yl}-3-methylpyridin-2-amine], the melting point lay within 163 to 165 °C. Also, the EC50 in data set [4] was found to be 73.5 nM. Also, at S1P1 [2] (setting [7]), the concentration for half-maximal inhibition (IC50) turned out to be 1.49e-08 M.

Source of the values: patent publication US20110306636A1, “OXAZOLE PYRIDINE DERIVATIVES USEFUL AS S1P1 RECEPTOR AGONISTS” (Merck Serono SA, priority 2009, published 2011).
